pIC50: −log10 of the molar value.
Biological target: T1, human PDE10A (Homo sapiens, UniProt Q9Y233)
T1 construct: The human PDE10A full length assay; purchased Enzo Life Science, Lausen, Switzerland SE-534
Test: human PDE10A full length Scintillation Proximity Assay (SPA)
Type: biochemical
Settings: 50 nM cGMP and 50 nM [3H]-cGMP, 20 minutes at room temperature; read-out: PDE10A inhibition IC50
Protocol: The following test was carried out in order to determine the activity of the compounds of the present invention. PDE10 activity of the compounds of the present invention was determined using a Scintillation Proximity Assay (SPA)-based method similar to the one previously described (Fawcett, L. et al., Proc Natl Acad Sci USA (2000) 97(7):3702-3707).
The human PDE10A full length assay was performed in 96-well micro titer plates. The reaction mixture of 50 μl contained 20 mM HEPES pH=7.5/10 mM MgCl2/0.05 mg/ml BSA (Sigma cat. #A-7906), 50 nM cGMP (Sigma, cat. #G6129) and 50 nM [^3H]-cGMP (GE Healthcare, cat. #TRK392 S.A. 13.2 Ci/mmol), 3.75 ng/well PDE10A enzyme (Enzo Life Science, Lausen, Switzerland cat #SE-534) with or without a specific test compound. A range of concentrations of the potential inhibitor was used to generate data for calculating the concentration of inhibitor resulting in 50% of the effect (e.g. IC50, the concentration of the competitor inhibiting PDE10A activity by 50%). Non-specific activity was tested without the enzyme. The reaction was initiated by the addition of the substrate solution (cGMP and [^3H]-cGMP) and allowed to progress for 20 minutes at room temperature. The reaction was terminated by adding 25 μl of YSi-SPA scintillation beads (GE Healthcare, cat. #RPNQ0150) in 18 mM zinc sulphate solution (stop reagent). After 1 h under shaking, the plate was centrifuged one minute at 170 g to allow beads to settle. Afterwards, radioactive counts were measured on a Perkin Elmer TopCount Scintillation plate reader.

T1 sequence (Q9Y233 1-779 isoform Q9Y233-1): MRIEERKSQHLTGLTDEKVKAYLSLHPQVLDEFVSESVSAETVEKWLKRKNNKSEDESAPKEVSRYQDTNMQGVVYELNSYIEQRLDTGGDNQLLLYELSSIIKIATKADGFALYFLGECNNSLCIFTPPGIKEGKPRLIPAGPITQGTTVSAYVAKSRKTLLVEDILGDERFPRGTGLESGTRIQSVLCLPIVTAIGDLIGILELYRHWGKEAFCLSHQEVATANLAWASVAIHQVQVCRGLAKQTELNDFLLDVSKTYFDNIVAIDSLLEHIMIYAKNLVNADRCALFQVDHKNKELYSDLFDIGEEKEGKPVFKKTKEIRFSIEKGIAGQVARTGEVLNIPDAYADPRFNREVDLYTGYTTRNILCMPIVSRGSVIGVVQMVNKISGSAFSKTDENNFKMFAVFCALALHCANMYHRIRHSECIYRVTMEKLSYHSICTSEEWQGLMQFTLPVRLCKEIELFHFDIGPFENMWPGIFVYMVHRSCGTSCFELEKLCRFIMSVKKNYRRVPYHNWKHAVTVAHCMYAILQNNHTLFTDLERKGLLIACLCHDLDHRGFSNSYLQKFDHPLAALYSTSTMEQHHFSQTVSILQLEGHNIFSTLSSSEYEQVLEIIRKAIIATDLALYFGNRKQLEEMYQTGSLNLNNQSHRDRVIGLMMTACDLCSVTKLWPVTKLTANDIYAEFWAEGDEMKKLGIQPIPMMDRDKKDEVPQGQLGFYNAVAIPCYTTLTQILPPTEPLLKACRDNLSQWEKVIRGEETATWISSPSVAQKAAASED

Q: `O=C(NCC(F)(F)F)c1nccnc1C(=O)Nc1ccn2cc(-c3ccccc3)nc2n1` [Example 43, Pyrazine-2,3-dicarboxylic acid 2-[(2-phenyl-imidazo[1,2-a]pyrimidin-7-yl)-amide]3-[(2,2,2-trifluoro-ethyl)-amide]] was tested. Which pIC50 did it give?
A: 6.05

Q: `O=C(Nc1ccn2cc(-c3ccccc3)nc2n1)c1cccnc1C(=O)N1CCC1` [Example 44, 2-(Azetidine-1-carbonyl)-N-(2-phenyl-imidazo[1,2-a]pyrimidin-7-yl)-nicotinamide] was tested. Which pIC50 did it give?
A: 6.09

Q: `COc1cccc(-c2cn3ccc(NC(=O)c4c(C(=O)N5CCC5)cnn4C)nc3n2)c1` [Example 45, 4-(Azetidine-1-carbonyl)-2-methyl-2H-pyrazole-3-carboxylic acid [2-(3-methoxy-phenyl)-imidazo[1,2-a]pyrimidin-7-yl]-amide] was tested. Which pIC50 did it give?
A: 8.08

Q: `COCCNC(=O)c1cnn(C)c1C(=O)Nc1ccn2cc(-c3ccccc3)nc2n1` [Example 46, 2-Methyl-2H-pyrazole-3,4-dicarboxylic acid 4-[(2-methoxy-ethyl)-amide]3-[(2-phenyl-imidazo[1,2-a]pyrimidin-7-yl)-amide]] was tested. Which pIC50 did it give?
A: 6.11

Q: How did the pIC50 turn out when `CCN(CC)C(=O)c1cnn(C)c1C(=O)Nc1ccn2cc(-c3ccccc3)nc2n1` [Example 47, 2-Methyl-2H-pyrazole-3,4-dicarboxylic acid 4-diethylamide 3-[(2-phenyl-imidazo[1,2-a]pyrimidin-7-yl)-amide]] was run?
A: 7.82

Q: With `Cn1ncc(C(=O)N2CCCC2)c1C(=O)Nc1ccn2cc(-c3ccccc3)nc2n1` [Example 48, 2-Methyl-4-(pyrrolidine-1-carbonyl)-2H-pyrazole-3-carboxylic acid (2-phenyl-imidazo[1,2-a]pyrimidin-7-yl)-amide] as the molecule, how does the pIC50 read?
A: 8.46

Q: `CCN(C)C(=O)c1cnn(C)c1C(=O)Nc1ccn2cc(-c3ccccc3)nc2n1` [Example 49, 2-Methyl-2H-pyrazole-3,4-dicarboxylic acid 4-(ethyl-methyl-amide) 3-[(2-phenyl-imidazo[1,2-a]pyrimidin-7-yl)-amide]] was tested. Which pIC50 did it give?
A: 8.72

Q: How did the pIC50 turn out when `CCNC(=O)c1cnn(C)c1C(=O)Nc1ccn2cc(-c3ccccc3)nc2n1` [Example 50, 2-Methyl-2H-pyrazole-3,4-dicarboxylic acid 4-ethylamide 3-[(2-phenyl-imidazo[1,2-a]pyrimidin-7-yl)-amide]] was run?
A: 7.61

Q: With `Cn1ncc(C(=O)NC2CC2)c1C(=O)Nc1ccn2cc(-c3ccccc3)nc2n1` [Example 51, 2-Methyl-2H-pyrazole-3,4-dicarboxylic acid 4-cyclopropylamide 3-[(2-phenyl-imidazo[1,2-a]pyrimidin-7-yl)-amide]] as the molecule, how does the pIC50 read?
A: 7.83

Q: How did the pIC50 turn out when `Cn1ncc(C(=O)N2CCCCC2)c1C(=O)Nc1ccn2cc(-c3ccccc3)nc2n1` [Example 52, 2-Methyl-4-(piperidine-1-carbonyl)-2H-pyrazole-3-carboxylic acid (2-phenyl-imidazo[1,2-a]pyrimidin-7-yl)-amide] was run?
A: 8.54

Q: How did the pIC50 turn out when `CN(CCO)C(=O)c1cnn(C)c1C(=O)Nc1ccn2cc(-c3ccccc3)nc2n1` [Example 53, 2-Methyl-2H-pyrazole-3,4-dicarboxylic acid 4-[(2-hydroxy-ethyl)-methyl-amide]3-[(2-phenyl-imidazo[1,2-a]pyrimidin-7-yl)-amide]] was run?
A: 7.63

Q: With `CC(C)N(C)C(=O)c1cnn(C)c1C(=O)Nc1ccn2cc(-c3ccccc3)nc2n1` [Example 54, 2-Methyl-2H-pyrazole-3,4-dicarboxylic acid 4-(isopropyl-methyl-amide) 3-[(2-phenyl-imidazo[1,2-a]pyrimidin-7-yl)-amide]] as the molecule, how does the pIC50 read?
A: 7.46

Q: `COCCN(C)C(=O)c1cnn(C)c1C(=O)Nc1ccn2cc(-c3ccccc3)nc2n1` [Example 55, 2-Methyl-2H-pyrazole-3,4-dicarboxylic acid 4-[(2-methoxy-ethyl)-methyl-amide]3-[(2-phenyl-imidazo[1,2-a]pyrimidin-7-yl)-amide]] was tested. Which pIC50 did it give?
A: 8.07

Q: With `CCCN(C)C(=O)c1cnn(C)c1C(=O)Nc1ccn2cc(-c3ccccc3)nc2n1` [Example 56, 2-Methyl-2H-pyrazole-3,4-dicarboxylic acid 4-(methyl-propyl-amide) 3-[(2-phenyl-imidazo[1,2-a]pyrimidin-7-yl)-amide]] as the molecule, how does the pIC50 read?
A: 7.76

Q: With `CCCNC(=O)c1cnn(C)c1C(=O)Nc1ccn2cc(-c3ccccc3)nc2n1` [Example 57, 2-Methyl-2H-pyrazole-3,4-dicarboxylic acid 3-[(2-phenyl-imidazo[1,2-a]pyrimidin-7-yl)-amide]-4-propylamide] as the molecule, how does the pIC50 read?
A: 7.64

Q: With `Cn1ncc(C(=O)NCC2CC2)c1C(=O)Nc1ccn2cc(-c3ccccc3)nc2n1` [Example 58, 2-Methyl-2H-pyrazole-3,4-dicarboxylic acid 4-cyclopropylmethyl-amide 3-[(2-phenyl-imidazo[1,2-a]pyrimidin-7-yl)-amide]] as the molecule, how does the pIC50 read?
A: 7.56

Q: How did the pIC50 turn out when `Cn1ncc(C(=O)NC2CCC2)c1C(=O)Nc1ccn2cc(-c3ccccc3)nc2n1` [Example 59, 2-Methyl-2H-pyrazole-3,4-dicarboxylic acid 4-cyclobutylamide 3-[(2-phenyl-imidazo[1,2-a]pyrimidin-7-yl)-amide]] was run?
A: 7.68

Q: `CC(C)NC(=O)c1cnn(C)c1C(=O)Nc1ccn2cc(-c3ccccc3)nc2n1` [Example 60, 2-Methyl-2H-pyrazole-3,4-dicarboxylic acid 4-isopropylamide 3-[(2-phenyl-imidazo[1,2-a]pyrimidin-7-yl)-amide]] was tested. Which pIC50 did it give?
A: 7.09

Q: How did the pIC50 turn out when `Cn1ncc(C(=O)N2CCC2)c1C(=O)Nc1ccn2cc(-c3cccc(OC(F)(F)F)c3)nc2n1` [Example 61, 4-(Azetidine-1-carbonyl)-2-methyl-2H-pyrazole-3-carboxylic acid [2-(3-trifluoromethoxy-phenyl)-imidazo[1,2-a]pyrimidin-7-yl]-amide] was run?
A: 7.63

Q: `CCOC(=O)c1cnn(CC)c1C(=O)Nc1ccn2cc(-c3ccccc3)nc2n1` [Example 62, 1-Ethyl-5-(2-phenyl-imidazo[1,2-a]pyrimidin-7-ylcarbamoyl)-1H-pyrazole-4-carboxylic acid ethyl ester] was tested. Which pIC50 did it give?
A: 7.89

Q: `Cn1ncc(C(=O)N2CCC2)c1C(=O)Nc1ccn2cc(-c3cccc(Cl)c3)nc2n1` [Example 63, 4-(Azetidine-1-carbonyl)-2-methyl-2H-pyrazole-3-carboxylic acid [2-(3-chloro-phenyl)-imidazo[1,2-a]pyrimidin-7-yl]-amide] was tested. Which pIC50 did it give?
A: 8.32

Q: How did the pIC50 turn out when `CCn1ncc(C(=O)NC)c1C(=O)Nc1ccn2cc(-c3ccccc3)nc2n1` [Example 64, 2-Ethyl-2H-pyrazole-3,4-dicarboxylic acid 4-methylamide 3-[(2-phenyl-imidazo[1,2-a]pyrimidin-7-yl)-amide]] was run?
A: 8.19

Q: `CNC(=O)c1[nH]nnc1C(=O)Nc1ccn2cc(-c3ccccc3)nc2n1` [Example 65, 1H-[1,2,3]Triazole-4,5-dicarboxylic acid 5-methylamide 4-[(2-phenyl-imidazo[1,2-a]pyrimidin-7-yl)-amide]] was tested. Which pIC50 did it give?
A: 7.46

Q: With `Cn1cc(C(=O)Nc2ccn3cc(-c4ccccc4)nc3n2)c(C(=O)N2CCC2)n1` [Example 66, 3-(Azetidine-1-carbonyl)-1-methyl-1H-pyrazole-4-carboxylic acid (2-phenyl-imidazo[1,2-a]pyrimidin-7-yl)-amide] as the molecule, how does the pIC50 read?
A: 7.94

Q: `CCN(C)C(=O)c1nn(C)cc1C(=O)Nc1ccn2cc(-c3ccccc3)nc2n1` [Example 67, 1-Methyl-1H-pyrazole-3,4-dicarboxylic acid 3-(ethyl-methyl-amide) 4-[(2-phenyl-imidazo[1,2-a]pyrimidin-7-yl)-amide]] was tested. Which pIC50 did it give?
A: 7.59

Q: `CCN(C)C(=O)c1cn(C)nc1C(=O)Nc1ccn2cc(-c3ccccc3)nc2n1` [Example 68, 1-Methyl-1H-pyrazole-3,4-dicarboxylic acid 4-(ethyl-methyl-amide) 3-[(2-phenyl-imidazo[1,2-a]pyrimidin-7-yl)-amide]] was tested. Which pIC50 did it give?
A: 7.42

Q: `CCn1ncc(C(=O)N2CCC2)c1C(=O)Nc1ccn2cc(-c3ccccc3)nc2n1` [Example 69, 4-(Azetidine-1-carbonyl)-2-ethyl-2H-pyrazole-3-carboxylic acid (2-phenyl-imidazo[1,2-a]pyrimidin-7-yl)-amide] was tested. Which pIC50 did it give?
A: 8.36

Q: How did the pIC50 turn out when `CN(CCC#N)C(=O)c1cnn(C)c1C(=O)Nc1ccn2cc(-c3ccccc3)nc2n1` [Example 70, 2-Methyl-2H-pyrazole-3,4-dicarboxylic acid 4-[(2-cyano-ethyl)-methyl-amide]3-[(2-phenyl-imidazo[1,2-a]pyrimidin-7-yl)-amide]] was run?
A: 7.48

Q: `CC(C)CN(C)C(=O)c1cnn(C)c1C(=O)Nc1ccn2cc(-c3ccccc3)nc2n1` [Example 71, 2-Methyl-2H-pyrazole-3,4-dicarboxylic acid 4-(isobutyl-methyl-amide) 3-[(2-phenyl-imidazo[1,2-a]pyrimidin-7-yl)-amide]] was tested. Which pIC50 did it give?
A: 7.75

Q: With `Cn1ncc(C(=O)NCC(C)(C)O)c1C(=O)Nc1ccn2cc(-c3ccccc3)nc2n1` [Example 72, 2-Methyl-2H-pyrazole-3,4-dicarboxylic acid 4-[(2-hydroxy-2-methyl-propyl)-amide]3-[(2-phenyl-imidazo[1,2-a]pyrimidin-7-yl)-amide]] as the molecule, how does the pIC50 read?
A: 6.33

From patent publication US8410117B2, “Imidazopyrimidine derivatives” (Hoffmann-La Roche Inc., priority 2010, dated 2013)
